Assay results from patent publication US20070225253A1, “Use of a trioxopyrimidine for the treatment and prevention of bronchial inflammatory diseases” (priority 2004, published 2007).
pIC50: −log10 of the molar value.

Key:
[1] = system: allergen-induced airway inflammation and bronchial hyperresponsiveness; assay: Mouse model of asthma (OVA), inhalation, short exposure challenge; format: in vivo, mice; details: aerosol, short-term exposure; Compound I 0.03 and 0.3 mg/ml, fluticasone 1 mg/ml; vs placebo, p<0.0001
Method: (§1) In order to study the modulation of airway inflammation by intraperitoneal injection of Compound I, mice were sensitized with 10 μg ovalbumin alumin-adsorbed (aluminject, perbio, Erembodegem, Belgium) injected intraperitonealy at days 0 and 7 and were subsequently exposed to OVA 1% or PBS aerosols for 30 minutes from day 21 to 24. Intraperitoneal injections were performed 30 min before OVA inhalations. The different injected formulations were: cremophor 10%-DMSO 10%-PBS 80%- Compound I30 mg/kg (suspension); cremophor 10%-DMSO 10%-PBS 80%- Compound I3.75 mg/kg (solution); HPβCD 200 mM Compound I 7.5 mg/kg (solution); HPβCD 200 mM. All results were compared to mice sensitized and exposed to PBS and OVA treated with PBS injected intraperitonealy. In order to study the modulation of airway inflammation by inhaled Compound I, mice were sensitized as described previously. Two protocols referred to as short exposure challenge and long-term exposure challenge were used. In the short exposure challenge, mice were exposed to aerosols of Compound I-complex at concentrations of 0.03 and 0.3 mg/ml of active compound in aqueous solution of from day 21 to 27 during 30 min in a Plexiglas exposure chamber (30×20×15 cm). Mice were exposed to OVA aerosols 30 minutes after the Compound I inhalation from day 23 to 27. In the so called long-term inhalation challenge, mice were exposed to aerosols of Compound Iat concentrations of 0.03 and 0.3 mg/ml complexed with HPβCD in an aqueous solution during 30 min five days odd weeks and to OVA aerosols 3 days odd weeks for 11 weeks. No inhalations were performed during even weeks.
The aerosol were produced by using an ultrasonic nebuliser SYSTAM (Systeme Assistance Medical, Le Ledat, France), the vibration frequency of which is 2.4 MHz with variable vibration intensity and ventilation levels. Vibration intensity was fixed in position 6 and the ventilation level was 25(ν1/2)1/min.
(§2) Twenty-four hours after the last allergen exposure, the bronchial hyper responsiveness was determined by measuring the Penh using a barometric plethysmograph as proposed by Hamelmann, E., et al., Am. J Respir. Crit. Care Med. 156 (1997) 766-775). The Penh was measured at baseline and 5 min after the inhalation of increasing doses (25, 50, 75 and 100 mM) of methacholine (Mch).
(§3) Immediately after the assessment of airway responsiveness, mice were sacrificed and 1 ml of PBS free of ionised calcium and magnesium but supplemented with 0.05 mM sodium EDTA was instilled 4 times via a tracheal cannula and recovered by gentle manual aspiration. The recovered bronchoalveolar lavage fluid (BAL) was centrifuged (1800 rpm for 10 min at 4° C.). […] A value from 0 to 3 per criteria was adjudged to each tissue section scored. […]

[2] = system: allergen-induced airway inflammation; assay: Mouse model of asthma (OVA), inhalation, long-term exposure challenge (11 weeks); format: in vivo, mice; details: aerosol, long term allergen exposure (11 weeks)
Method: as §1, with “In the so called long-term inhalation challenge, mice were exposed to aerosols of Compound Iat concentrations of 0.03 and 0.3 mg/ml complexed with HPβCD in an aqueous solution during 30 min five days odd weeks and to OVA aerosols 3 days odd weeks for 11 weeks. No inhalations were performed during even weeks.” left out
as §2, with “J Respir. Crit. Care Med. 156 (1997) 766-775).” left out
as §3, with “aspiration.” for “aspiration. The recovered bronchoalveolar lavage fluid (BAL) was centrifuged (1800 rpm for 10 min at 4° C.).”

Human MMP-9 = Human MMP-9 (Homo sapiens, UniProt P14780); assay: MMP enzymatic activity, modified fluorescence assay (DNP-substrate); format: biochemical; details: read-out: IC50 MMP-9
Human MMP-9, sequence (P14780 107-707 limits assumed): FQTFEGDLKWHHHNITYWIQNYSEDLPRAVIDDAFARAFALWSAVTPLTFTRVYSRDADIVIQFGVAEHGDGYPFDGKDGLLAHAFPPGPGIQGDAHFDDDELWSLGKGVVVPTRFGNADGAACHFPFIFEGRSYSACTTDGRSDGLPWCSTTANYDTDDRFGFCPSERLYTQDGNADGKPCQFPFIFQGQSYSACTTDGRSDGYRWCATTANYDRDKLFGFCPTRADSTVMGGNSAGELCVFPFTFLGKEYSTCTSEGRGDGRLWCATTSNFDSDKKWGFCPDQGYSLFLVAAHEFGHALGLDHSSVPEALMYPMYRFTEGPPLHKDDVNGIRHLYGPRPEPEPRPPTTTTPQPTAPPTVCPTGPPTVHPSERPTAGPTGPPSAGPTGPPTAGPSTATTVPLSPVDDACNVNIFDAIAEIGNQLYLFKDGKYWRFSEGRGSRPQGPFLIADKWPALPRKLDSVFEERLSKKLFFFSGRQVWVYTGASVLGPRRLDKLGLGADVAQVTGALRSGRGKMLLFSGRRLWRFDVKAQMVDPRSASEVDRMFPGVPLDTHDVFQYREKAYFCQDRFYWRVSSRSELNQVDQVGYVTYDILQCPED
Method: (§4) IC50 values are measured by an in vitro assay for MMP enzymatic activity. Such an assay is described by Stack, M. S., and Gray, R. D., J. Biol. Chem. 264 (1989) 4277-4281. This assay is based on the determination of MMP enzymatic activity on a dinitrophenol substrate and fluorescence measurement of the substrate after cleaving by MMPs.
(§5) Inhibitors were tested in a modified fluorescence-assay as described by Stack, M. S., and Gray, R. D., J. Biol. Chem. 264 (1989) 4277-4281. Human MMP-1, MMP-2, MMP-3, MMP-9 and MMP-14 are commercially available (e.g. Calbiochem). The pro-enzymes were activated with 1 mM APMA (incubation for 30 min at 37° C.) immediately before testing. Activated enzyme is diluted to 100 ng/ml in incubation buffer (50 mM Tris, 100 mM NaCl, 10 mM CaCl2, pH 7.6). The compounds were dissolved in 100% DMSO. […] DNP-substrate (Bachem M1855, 255 μM) was dissolved in incubation buffer.
(§6) The test tube contains 970 μl incubation buffer, 10 μl inhibitor solution and 10 μl enzyme solution. The reaction was started by adding the 10 μl substrate solution.
(§7) Kinetics of activity were determined using excitation at 280 nm and emission at 346 nm measured on a FluoroMax™ (Spex Industries Inc., Edison, N.J., USA) over 120 sec. DMSO has been used as control instead of inhibitor solution.
(§8) IC50's are defined as the concentration of inhibitor that gives a signal that is 50% of the positive enzyme control.

Human MMP-14 = Human MMP-14 (Homo sapiens, UniProt P50281); assay: as above; format: biochemical; details: read-out: IC50 MMP-14
Method: as §4, §5, §6, §7, §8

pIC50 (Human MMP-9)	pIC50 (Human MMP-14)	Structure (SMILES)	eosinophilic inflammation in BAL [1]	peribronchial inflammation score ([2]; p<0.0001)	BAL eosinophilia ([2]; p<0.001)	tissue eosinophil infiltration score ([2]; p<0.01)
–	–	CCC(=O)O[C@]1(C(=O)SCF)[C@H](C)C[C@H]2[C@@H]3C[C@H](F)C4=CC(=O)C=C[C@]4(C)[C@@]3(F)[C@@H](O)C[C@@]21C	significant decrease	significantly decreased	significantly decreased	decreased
7.64	7.72	CNC(=O)[C@H](Cc1ccccc1)NC(=O)[C@H](CC(C)C)[C@H](CSc1cccs1)C(=O)NO [Batimastat, reference compound]	–	–	–	–
